The text below walks through data of patent US9975848B2, “Inhibitors of HIV-1 entry and methods of use thereof” (priority 2014, dated 2018).

Where “and” joins values, the source holds several entries; their conditions need not be identical. Equal values may be shown once. Read-outs that look alike come from different tables or passages of the source.

The subject of one data set is YU-2. In words: Infection by single-round luciferase viruses, HIV-1 YU-2 envelope. The format is cell-based. To be noted: Human immunodeficiency virus 1, 48 h, read-out: YU-2 (μM). Here is the method: (§1) Compounds: Compounds are dissolved in dimethyl sulfoxide at a stock concentration of 10 mM, aliquoted, and stored at −20° C. Each compound is then diluted to 1 mM in serum-free Dulbecco's modified Eagle medium (DMEM) and used for different assays.
(§2) Cell Lines: 293T human embryonic kidney and Cf2Th canine thymocytes (ATCC) are grown at 37° C. and 5% CO2 in Dulbecco's modified Eagle's medium (Invitrogen) containing 10% fetal bovine serum (Sigma) and 100 μg/mL penicillin-streptomycin (Mediatech, Inc.). Cf2Th cells stably expressing human CCR5 and CD4 are grown in medium supplemented with 0.4 mg/mL G418 and 0.2 mg/mL hygromycin (Invitrogen).
(§3) Recombinant Luciferase Viruses: 293T human embryonic kidney cells were co-transfected with plasmids expressing the pCMVΔP1Δenv HIV-1 Gag-Pol packaging construct, the R5 YU2 envelope glycoproteins, or the envelope glycoprotein of the control amphotropic murine leukemia virus (A-MLV), and the firefly luciferase-expressing vector at a DNA ratio of 1:1:3 μg using the Effectene transfection reagent (Qiagen). Co-transfection produced single-round, replication-defective viruses. The virus-containing supernatants were harvested 36-40 h after transfection, spun, aliquoted, and frozen at −80° C. until further use. The reverse transcriptase (RT) activities of all viruses were measured as described in Rho, H. M., et al. Virology 1981, 112, 355-360.
(§4) Infection by Single-Round Luciferase Viruses. Cf2Th-CCR5-CD4 target cells were seeded at a density of 6×10^3 cells/well in 96-well luminometer-compatible tissue culture plates (PerkinElmer) 24 h before infection. On the day of infection, CD4-mimetic compounds of interest (0-100 μM) were incubated with recombinant viruses (10,000 RT units) at 37° C. for 30 min. In the case of sensitization assays, a constant concentration of compounds was incubated with virus for 30 min at 37° C.; then, 17b or other antibodies (0-100 μg/mL) were added to the virus/compound mixture and incubated for an additional 30 min at 37° C. The mixtures were then added to the target cells and incubated for 48 h at 37° C.; after this time, the medium was removed from each well, and the cells were lysed by the addition of 30 μL passive lysis buffer (Promega) and three freeze-thaw cycles. An EG&G Berthold Microplate Luminometer LB 96V was used to measure the luciferase activity of each well after the addition of 100 μL of luciferin buffer (15 mM MgSO4, 15 mM KPO4, pH 7.8, 1 mM ATP, and 1 mM dithiothreitol) and 50 μL of 1 mM Firefly D-Luciferin Free Acid 99% (Prolume).

In a further data set the test system is A-MLV. The experiment in a line: Infection by single-round luciferase viruses, control A-MLV envelope. The format is cell-based, amphotropic murine leukemia virus. The conditions noted are these: Murine leukemia virus, 48 h, read-out: A-MLV (μM). The protocol:
as §1, §2, §3, §4

For another data set, the target named is T1, monomeric YU-2 gp120 (Human immunodeficiency virus type 1 group M subtype B, UniProt P35961).
T1 construct: containing monomeric YU-2 gp120 at a concentration of 2 μM
The experiment in a line: biochemical. The format is binding, HIV-1. The conditions noted are these: ITC, 25° C., PBS pH 7.4, 2% DMSO. The protocol: Isothermal Titration Calorimetry. Thermodynamic parameters for the binding of the different inhibitors to gp120 were obtained by isothermal titration calorimetry (ITC) using a VP-ITC microcalorimeter from MicroCal/GE Healthcare (Northampton, Mass., USA). The titrations were performed at 25° C. by injecting 10 μL aliquots of inhibitor solution into the calorimetric cell (volume ˜1.4 mL) containing monomeric YU-2 gp120 at a concentration of 2 μM. […] In all titration experiments, gp120 and the different inhibitors were equilibrated with PBS, pH 7.4, with 2% DMSO. The heat evolved upon each injection of inhibitor was obtained by integration of the calorimetric signal. The heat associated with inhibitor binding to gp120 was obtained by subtracting the heat of dilution from the heat of reaction.

In the next data set the test system is AD8. In words: Infection by single-round luciferase viruses, HIV-1 AD8 envelope. The format is cell-based. The conditions noted are these: Human immunodeficiency virus 1, 48 h, read-out: AD8 (μM).
In another data set the test system is JR-FL. In words: Infection by single-round luciferase viruses, HIV-1 JR-FL envelope. The format is cell-based. To be noted: Human immunodeficiency virus 1, 48 h, read-out: JR-FL (μM).
The target of the next data set is gp120 (Human immunodeficiency virus type 1 group M subtype B, UniProt P35961). To be noted: background statement; cited from earlier work.
The nature of data set [1]: Evaluation of blood-brain barrier: brain and plasma concentrations. The format is in vivo. To be noted: 1 hr post IP at 5 mg/kg, female CD1 mice. The protocol: Compound BNM-III-170 was administered to mice under a protocol approved by the University of Pennsylvania Institutional Animal Care and Use Committee. Specifically, BNM-III-170, dissolved in DMSO, was administered IP at 5 mg/kg to 3 month old female CD1 mice. Mice were euthanized 1 hour post dose. Brain and plasma were then collected.
Hemi-brains were homogenized with 10 mM ammonium acetate pH 4.0 (50% w/v) using a sonic dismembrator. Brain homogenate and plasma were extracted with 4 parts (v/v) acetonitrile, vortexed, and centrifuged at 15,000 g for 10 minutes. Supernatants were analyzed by LC-MS/MS using a Waters Acuity UPLC-TQMS. Samples (5 μL) were separated using a BEH C18 column (1.7 μm, 2.1×50 mm) at 0.6 mL/min from 5 to 95% acetonitrile with 0.1% formic acid over 2 minutes. BNM-III-170 was detected in positive ion mode using selected reaction monitoring of a specific collision induced ion transition (447.3>184.1 m/z). Unknown peak areas were quantified against standard curves constructed with BNM-III-170 spiked mouse brain homogenate or plasma extracted as above to final concentrations from 1 to 1000 ng/mL.

The nature of data set [2]: Assessment of the maximum tolerated dose (MTD). To be noted: mouse, in vivo, ip; intraperitoneal, CD-1 mice. The protocol: Procedure: (+)-BNM-III-170 was dissolved in DMSO to a final concentration of 10 mg/mL. This solution was then used for intraperitoneal administration to CD-1 mice at various doses to examine for visible signs of intolerance after compound dosing. This included an assessment of hyper- or hypoactivity, altered locomotion, ataxia, sedation, or other visible abnormalities. The compound was ultimately tested at three doses (30 mg/kg, 10 mg/kg and 3 mg/kg), as outlined below, with the amounts injected per mouse and the behavioral observations indicated for each dosing group.

For the compound `CNCc1ccc2c(c1)[C@H](NC(=O)C(=O)Nc1ccc(Cl)c(F)c1)[C@@H](CNC(=N)N)C2` [(+)-JP-III-048], in the data set on YU-2, the IC50 was 2.1 ± 0.9 µM. The IC50 in the data set on A-MLV was above 100 µM. Further, on monomeric YU-2 gp120, the Kd is 0.024 µM, the “ΔG” value was -10.4 kcal/mol, the “ΔH” value is -28.2 kcal/mol and the “−TΔS (kcal/mol)” value is reported as “+17.8 kcal/mol”. Further, the IC50 with AD8 turned out to be 6.7 ± 0.6 µM. For the same compound, the IC50 in the data set with JR-FL stood at 37.3 ± 13.8 µM.

With `CN(Cc1ccc2c(c1)[C@H](NC(=O)C(=O)Nc1ccc(Cl)c(F)c1)[C@@H](CNC(=N)N)C2)C(=N)N` [(−)-BNM-IV-197], the IC50 in the data set on YU-2 was 1.2 ± 0.3 µM. Also, in the data set with A-MLV, the IC50 was found to be 83.7 ± 16.4 µM. For the same compound, at monomeric YU-2 gp120, the Kd was 0.095 µM, the “ΔG” value is -9.6 kcal/mol, the “ΔH” value is -14.2 kcal/mol and the “−TΔS (kcal/mol)” value is recorded as “+4.6 kcal/mol”. Moreover, the IC50 in the data set with AD8 amounted to 1.3 ± 0.2 µM. Also, the IC50 in the data set on JR-FL is 19.5 ± 10.1 µM.

As to `CN(Cc1ccc2c(c1)C[C@H](CNC(=N)N)[C@H]2NC(=O)C(=O)Nc1ccc(Cl)c(F)c1)C(=N)N` [(+)-BNM-IV-147], the IC50 in the data set with YU-2 is 0.8 ± 0.02 µM. Moreover, the IC50 with A-MLV is above 100 µM. At monomeric YU-2 gp120, the dissociation constant Kd was determined as 0.095 µM, the “ΔG” value is -9.6 kcal/mol, the “ΔH” value was -15.4 kcal/mol and the “−TΔS (kcal/mol)” value is given as “+5.8 kcal/mol”. Also, the IC50 with AD8 was found to be 3.3 ± 0.2 µM. Also, the IC50 in the data set with JR-FL came out at 6.2 ± 0.5 µM.

For `CC1(C)CC(NC(=O)C(=O)Nc2ccc(Cl)cc2)CC(C)(C)N1` [NBD-556], on gp120, the favorable enthalpy change was -24.5 kcal/mol and the “unfavorable entropy change, −TΔS, to Gibbs energy” value is recorded as 17.1 kcal/mol.

Consider `CNCc1ccc2c(c1)C[C@H](CNC(=N)N)[C@H]2NC(=O)C(=O)Nc1ccc(Cl)c(F)c1` [(+)-BNM-III-170], for which, in the data set on YU-2, the IC50 was 1.5 ± 0.8 µM. In the data set with A-MLV, the IC50 is above 100 µM. For the same compound, at monomeric YU-2 gp120, the affinity, expressed as Kd, was 0.047 µM; the “ΔG” value is -10.0 kcal/mol; the “ΔH” value is -20.7 kcal/mol; the “−TΔS (kcal/mol)” value is on record as “+10.7 kcal/mol”. Further, in data set [1] (individual mice 1-3), the B/P is 0.51 and 0.14 and 0.45; the Brain is 268 ng/g and 131 ng/g and 122 ng/g; the “Plasma” value was 522 ng/mL and 910 ng/mL and 270 ng/mL. The Kp at 1 h in data set [1] (female, CD1, mouse, brain, ip, 5 mg/kg, AVG of 3 mice, read-out: B/P) was found to be 0.37. Also, the concentration at 1 h in data set [1] (female, CD1, mouse, brain, ip, 5 mg/kg, AVG of 3 mice, read-out: Brain) came out at 174 ng/g. Besides, the concentration at 1 h in data set [1] (female, CD1, mouse, plasma, ip, 5 mg/kg, AVG of 3 mice, read-out: Plasma) worked out at 567 ng/mL. Moreover, the IC50 with AD8 came to 6.4 ± 1 µM. In data set [2], this compound displayed an MTD of 3 to 9 mg/kg. Moreover, the IC50 with JR-FL worked out at 14.2 ± 4.5 µM.

With `N=C(N)NC[C@H]1Cc2ccccc2[C@@H]1NC(=O)C(=O)Nc1ccc(Cl)c(F)c1` [(+)-DMJ-II-121], the IC50 in the data set with YU-2 is 3.8 ± 1.3 µM; in the data set with A-MLV, 94.3 ± 5.7 µM; in the data set on AD8 it was 8.5 ± 2.1 µM; in the data set on JR-FL, 66.8 ± 9.5 µM. For the same compound, the “ΔG” value at monomeric YU-2 gp120 is -9.5 kcal/mol. In addition, the “ΔH” value at monomeric YU-2 gp120 was -17.9 kcal/mol. The “−TΔS (kcal/mol)” value at monomeric YU-2 gp120 is “+8.4 kcal/mol”.

`CN(Cc1ccccc1)Cc1ccc2c(c1)C[C@H](CNC(=N)N)[C@H]2NC(=O)C(=O)Nc1ccc(Cl)c(F)c1` [(+)-BNM-IV-125]: the IC50 with A-MLV is above 100 µM; in the data set with JR-FL, 14 ± 2 µM.

In general, Kd refers to the constant that tells how readily two partners part at equilibrium. Read a high Kd as weaker binding. Usually MTD stands for the largest dose that counted as tolerated. A high value points to a wide tolerated range.
